The values below come from publication doi:10.1101/2020.10.16.342121v1 (biorxiv, 2020).

The target in assay [1] is T1, human serum albumin (HSA) (Homo sapiens, UniProt P02768). The experiment in a line: intrinsic fluorescence quenching titration. The class given is binding.
Assay [2] addresses T1, human serum albumin (HSA). The assay can be described thus: thermal denaturation followed by intrinsic fluorescence. The class given is binding. The following applies: 10 mM PBS pH 7.4, 0.4 μM HSA, 40 μM DHLA, 37-87 °C.

For orientation: Kd means the concentration at which binding is half-saturated.

T1 sequence (P02768 25-609): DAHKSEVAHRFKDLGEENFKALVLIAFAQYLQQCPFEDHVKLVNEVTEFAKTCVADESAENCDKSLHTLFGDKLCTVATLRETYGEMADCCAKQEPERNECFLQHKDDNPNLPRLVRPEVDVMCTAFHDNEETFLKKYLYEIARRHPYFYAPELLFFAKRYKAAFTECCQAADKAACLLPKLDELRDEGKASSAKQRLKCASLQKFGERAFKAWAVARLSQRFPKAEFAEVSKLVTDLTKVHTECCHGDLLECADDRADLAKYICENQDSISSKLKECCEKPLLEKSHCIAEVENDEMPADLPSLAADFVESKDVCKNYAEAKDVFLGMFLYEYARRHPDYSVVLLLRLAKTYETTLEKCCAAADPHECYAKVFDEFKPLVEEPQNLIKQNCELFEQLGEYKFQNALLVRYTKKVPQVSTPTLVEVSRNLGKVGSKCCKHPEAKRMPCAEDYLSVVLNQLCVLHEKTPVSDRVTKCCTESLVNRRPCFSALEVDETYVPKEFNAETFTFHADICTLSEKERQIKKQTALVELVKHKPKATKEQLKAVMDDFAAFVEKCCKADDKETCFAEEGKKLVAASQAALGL

Regarding `O=C(O)CCCC[C@@H](S)CCS` [dihydro-alpha-lipoic acid], the Kd in assay [1] was 125 µM. In addition, the “Tm with ligand (HSA alone 68 °C)” value in assay [2] was determined as 70 °C.
